Entries after “also recorded” stand apart in the source; their conditions may differ.
System: CYH2-PTC-FF reporter
Test: dual luciferase (Firefly/Renilla) CYH2-PTC reporter assay
Assay type: cell-based, yeast
Excerpt: FIG. 1: Schematic representation of comparative dual luciferase PTC assay as employed here. Firefly (FF) and Renilla (R) in wild type (WT) yeast cells are compared with luminescence counts of a PTC-FF reporter (e.g. the CYH2-PTC-FF reporter) in wild type yeast cells, wherein a PTC reduces the FF protein and thus luminescence.
FIG. 3: Gene dosage of ribosomal proteins modulates level of protein expression from PTC mRNAs. […] In FIG. 3B, a modulation of the expression of the FF/FF(PTC) reporter in selected ribosomal protein deletion strains is shown. In FIG. 3C, a modulation of expression of the LAMB3-FF/LAMB3(PTC)-FF reporter in selected ribosomal protein deletion strains is shown.
The yeast CYH2 was amplified from the genomic yeast DNA with the primers LG 751 and LG 752. The ATG of the CYH2 was left out to be in frame with the promoter and the firefly luciferase reporter. The 1.0 kb PCR product and pLBK 162 were digested with KpnI and SacI. The CYH2-PTC reporter was ligated in pLBK 162, thus generating pLBK 165 (FIG. 5f). […]
The reporter plasmids are to be transformed in the WT and ribosomal protein deletion strains. […] For testing the different levels of read-through a PTC containing reporter plasmid (e.g. pLBK 165) and for internal standard pLBK 164 are used. […]

Substance: gentamycin
- expression level of the CYH2-PTC-FF reporter (RPL10/ΔRPL10 gene dosage reduced yeast strain, gentamycin added): not strong or not present at all; also recorded: does not contribute to alteration
- CYH2-PTC-FF level (Firefly signal) (WT yeast strain (BY4743), gentamycin added as control): the signal increases; also recorded: induce an increase
